Target: T1, CXCR3 (Homo sapiens, UniProt P49682)
T1 construct: host or cells: CHO-K1 (cAMP Hunter CHOK1 CXCR3 Gi cell line)
T1 sequence (P49682 1-368): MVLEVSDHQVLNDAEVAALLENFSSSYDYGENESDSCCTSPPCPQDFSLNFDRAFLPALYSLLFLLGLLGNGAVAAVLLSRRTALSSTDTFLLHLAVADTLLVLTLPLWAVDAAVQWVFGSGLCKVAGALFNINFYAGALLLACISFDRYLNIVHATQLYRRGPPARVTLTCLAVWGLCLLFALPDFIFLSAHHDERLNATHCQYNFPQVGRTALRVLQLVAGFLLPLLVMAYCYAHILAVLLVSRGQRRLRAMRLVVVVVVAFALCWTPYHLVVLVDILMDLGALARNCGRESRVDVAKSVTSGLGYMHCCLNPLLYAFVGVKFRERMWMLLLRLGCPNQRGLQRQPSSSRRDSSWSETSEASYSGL
Experiment: CXCR3 cAMP agonist assay (cAMP Hunter CHOK1 CXCR3 Gi cell line, forskolin-stimulated, HitHunter cAMP detection)
Type: cell-based
Details: cAMP Hunter CHOK1 CXCR3 Gi cells, 20 μM forskolin, 30 minutes; read-out: Activity (CXCR3 cAMP agonist assay compound EC50)
Method in brief: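 Agonist activity was measured as suppression of forskolin (20 μM)-induced cAMP, read by luminescent enzyme-fragment complementation with a cAMP standard curve and CXCL11 defining full efficacy. Assay used 50,000 CXCR3 Gi CHOK1 cells/well in pH 7.4 HEPES-buffered HBSS with 0.1% BSA, compound 0-10 μM over 12 points, 30 min incubation.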

Compound | EC50 [nM]
COc1ccccc1NC(=O)[C@H](CCCCN)NC(=O)[C@@H]1Cc2ccccc2CN1C(=O)CCC(=O)c1ccccc1 [Compound 1-6] | 250 to 500
CC1(C)CCCN(C(=O)CCC(=O)N2Cc3cc(F)ccc3C[C@H]2C(=O)N[C@@H](CCN)C(=O)Nc2ccc(Cl)c(Cl)c2F)C1 [Compound 15-57] | < 50
Cc1cc(NC(=O)[C@H](CCN)NC(=O)[C@@H]2Cc3ccccc3CN2C(=O)CCC(=O)N2CCCC2)ccc1Cl [Compound 12-5] | < 50
Cc1c(Cl)ccc(NC(=O)[C@H](CCN)NC(=O)[C@@H]2Cc3ccccc3CN2C(=O)CCC(=O)N2CCCCC2(C)C)c1Cl [Compound 15-52] | < 50
CC1(C)CCCCN1C(=O)CCC(=O)N1Cc2ccccc2C[C@H]1C(=O)N[C@H](CCN1CCC(O)CC1)C(=O)Nc1ccc(Cl)c(Cl)c1F [Compound 26-2] | < 50
CCN(C(=O)CCC(=O)N1Cc2ccccc2C[C@H]1C(=O)N[C@@H](CCN)C(=O)Nc1ccc(Cl)c(Cl)c1F)C(C)(C)C [Compound 15-35] | < 50
O=C(CCC(=O)N1Cc2ccccc2C[C@H]1C(=O)N[C@@H](CCN1CCC(F)(F)C1)C(=O)Nc1ccc2c(c1)CCC2)c1ccccc1 [Compound 23-7] | 250 to 500
Cc1cc(NC(=O)[C@H](CCN)NC(=O)[C@@H]2Cc3ccccc3CN2C(=O)CCC(=O)N2[C@@H](C)CCC[C@@H]2C)ccc1Cl [Compound 12-142] | < 50
Cc1cc(NC(=O)[C@H](CCN)NC(=O)[C@@H]2Cc3ccccc3CN2C(=O)CCC(=O)N2CCN(C)c3ccccc32)ccc1Cl [Compound 12-140] | < 50
Cc1cc(NC(=O)C(CC2CCN(C)CC2)NC(=O)[C@@H]2Cc3ccccc3CN2C(=O)CCC(=O)c2ccccc2)ccc1Cl (mixture of isomers) [Compound 6-1, (S)—N—((S)-1-((4-chloro-3-methylphenyl)amino)-3-(1-methylpiperidin-4-yl)-1-oxopropan-2-yl)-2-(4-oxo-4-phenylbutanoyl)-1,2,3,4-tetrahydroisoquinoline-3-carboxamide] | 50 to 250
Cc1cc(NC(=O)[C@H](CCN)NC(=O)[C@@H]2Cc3ccccc3CN2C(=O)CCC(=O)N2CC(N(C)C)C2)ccc1Cl [Compound 12-133] | 50 to 250
NCC[C@H](NC(=O)[C@@H]1Cc2ccccc2CN1C(=O)CCC(=O)N1CCCCC1C1CCC1)C(=O)Nc1ccc(Cl)c(Cl)c1F (some centres unmarked) [Compound 15-22] | < 50
Cc1cc(NC(=O)[C@H](CCN)NC(=O)[C@@H]2Cc3ccccc3CN2C(=O)CCC(=O)N2CCN(C(C)(C)C)CC2)ccc1Cl [Compound 12-102] | 50 to 250
CC1(C)CCCN(C(=O)CCC(=O)N2Cc3ccccc3C[C@H]2C(=O)NC2(C(=O)Nc3ccc(Cl)c(Cl)c3F)CCNCC2)C1 [Compound 12-130] | < 50
Cc1cc(NC(=O)[C@H](CCN)NC(=O)[C@@H]2Cc3ccccc3CN2C(=O)CCC(=O)N2CC3CCC2CN3C)ccc1Cl (some centres unmarked) [Compound 12-146] | > 500
CC1(C)CCCN(C(=O)CCC(=O)N2Cc3ccccc3C[C@H]2C(=O)N[C@@H](CCN)C(=O)Nc2ccc3c(c2)CCC3)C1 [Compound 10-7] | < 50
Cc1cc(NC(=O)[C@H](CCN)NC(=O)[C@@H]2Cc3ccccc3CN2C(=O)CCC(=O)N2C(C)CCC2C)ccc1Cl (some centres unmarked) [Compound 12-47] | < 50

Compound | EC50 [nM]
Cc1cc(NC(=O)[C@H](CCN)NC(=O)[C@@H]2Cc3ccccc3CN2C(=O)CCC(=O)NCC2CCCCC2)ccc1Cl [Compound 12-3] | 50 to 250
COC1CCN(C(=O)CCC(=O)N2Cc3ccccc3C[C@H]2C(=O)N[C@@H](CCN)C(=O)Nc2ccc(Cl)c(C)c2)C1 (some centres unmarked) [Compound 12-64] | < 50
O=C(CCC(=O)N1Cc2ccccc2C[C@H]1C(=O)N[C@@H](CCN1CCC(F)(F)C1)C(=O)Nc1ccc(Cl)c(Cl)c1F)c1ccccc1 [Compound 23-4] | 50 to 250
CN(C)[C@H]1CCN(C(=O)CCC(=O)N2Cc3ccccc3C[C@H]2C(=O)N[C@@H](CCN)C(=O)Nc2ccc(Cl)c(Cl)c2F)C1 [Compound 15-30] | 50 to 250
O=C(CCC(=O)N1Cc2ccccc2C[C@H]1C(=O)NC1(C(=O)Nc2ccc3c(c2)CCC3)CCNCC1)c1ccccc1 [Compound 13-1] | < 50
CC1CN(C(=O)CCC(=O)N2Cc3ccccc3C[C@H]2C(=O)N[C@@H](CCN)C(=O)Nc2ccc(Cl)c(Cl)c2F)CCN1C (some centres unmarked) [Compound 15-5] | < 50
Cc1cc(NC(=O)[C@H](CCN)NC(=O)[C@@H]2Cc3ccccc3CN2C(=O)CCC(=O)N2CC[C@H](N(C)C)C2)ccc1Cl [Compound 12-49] | < 50
Cc1cc(NC(=O)[C@H](CCN)NC(=O)[C@@H]2Cc3ccccc3CN2C(=O)CCC(=O)N2C(C)CCCC2C)ccc1Cl (some centres unmarked) [Compound 12-41] | < 50
CCC1CN(C(=O)CCC(=O)N2Cc3ccccc3C[C@H]2C(=O)N[C@@H](CCN)C(=O)Nc2ccc(Cl)c(C)c2)CCN1C (some centres unmarked) [Compound 12-104] | < 50
CN1CN(C(=O)CCC(=O)N2Cc3ccccc3C[C@H]2C(=O)N[C@@H](CCN)C(=O)Nc2ccc(Cl)c(Cl)c2F)CC1=O [Compound 15-45] | 250 to 500
Cc1cc(NC(=O)[C@H](CCN)NC(=O)[C@@H]2Cc3ccccc3CN2C(=O)CCC(=O)N2CC(F)C2)ccc1Cl [Compound 12-19] | 250 to 500
Cc1cc(NC(=O)[C@H](CCN)NC(=O)[C@@H]2Cc3ccccc3CN2C(=O)CCC(=O)N2CCC(O)C2)ccc1Cl (some centres unmarked) [Compound 12-48] | 50 to 250
Cc1cc(NC(=O)[C@H](CCN)NC(=O)[C@@H]2Cc3ccccc3CN2C(=O)CCC(=O)N2CC3(COC3)C2)ccc1Cl [Compound 12-9] | > 500
C[C@@H]1CN(C(=O)CCC(=O)N2Cc3ccccc3C[C@H]2C(=O)N[C@@H](CCN)C(=O)Nc2ccc(Cl)c(Cl)c2F)CCN1C [Compound 15-64] | 50 to 250
Cc1cc(NC(=O)[C@H](CCN)NC(=O)[C@@H]2Cc3ccccc3CN2C(=O)CCC(=O)N2CCN(S(C)(=O)=O)CC2)ccc1Cl [Compound 12-15] | 50 to 250
Cc1cc(NC(=O)[C@H](CCN)NC(=O)[C@@H]2Cc3ccccc3CN2C(=O)CCC(=O)N2CCC(c3ccccc3)C2)ccc1Cl (some centres unmarked) [Compound 12-54] | 50 to 250

Now from value to compound:

EC50 [nM] | Compound
50 to 250 | CCc1cc(Cl)c(Cl)cc1NC(=O)[C@H](CCN)NC(=O)[C@@H]1Cc2ccccc2CN1C(=O)CCC(=O)c1ccccc1 [Compound 2-30]
> 500 | COc1c(NC(=O)[C@H](CCN)NC(=O)[C@@H]2Cc3ccccc3CN2C(=O)CCC(=O)c2ccccc2)ccc(C)c1C [Compound 2-61]
< 50 | Cc1ccc(F)c(NC(=O)[C@H](CCN)NC(=O)[C@@H]2Cc3ccccc3CN2C(=O)CCC(=O)c2ccccc2)c1 [Compound 2-33]
50 to 250 | Cc1cc(NC(=O)[C@H](CCN2CCC(F)(F)CC2)NC(=O)[C@@H]2Cc3ccccc3CN2C(=O)CCC(=O)c2ccccc2)ccc1Cl [Compound 17-4]
< 50 | NCC[C@H](NC(=O)[C@@H]1Cc2ccccc2CN1C(=O)CCC(=O)c1ccccc1)C(=O)Nc1cc2c(cc1F)CCC2 [Compound 2-78]
50 to 250 | NCC[C@H](NC(=O)[C@@H]1Cc2ccccc2CN1C(=O)CCC(=O)c1ccccc1)C(=O)Nc1cc(Cl)cc(Cl)c1 [Compound 2-17]
250 to 500 | NCC[C@H](NC(=O)[C@@H]1Cc2ccccc2CN1C(=O)CCC(=O)c1ccccc1)C(=O)Nc1ccc2cccnc2c1 [Compound 2-45]
> 500 | Cc1cc(NC(=O)[C@H](CCN)NC(=O)[C@@H]2Cc3ccccc3CN2C(=O)CCC(=O)NCc2ccccc2)ccc1Cl [Compound 12-18]
50 to 250 | Cc1cc(NC(=O)[C@H](CCN)NC(=O)[C@@H]2Cc3ccccc3CN2C(=O)CCC(=O)c2ccccc2)cc(Cl)c1Cl [Compound 4-18]
< 50 | NCC[C@H](NC(=O)[C@@H]1Cc2ccccc2CN1C(=O)CCC(=O)c1ccccc1)C(=O)Nc1cc(Cl)c(Cl)cc1C(F)(F)F [Compound 14-2]
50 to 250 | NCC[C@H](NC(=O)[C@@H]1Cc2ccccc2CN1C(=O)CCC(=O)c1ccccc1)C(=O)Nc1cc(Cl)c(Cl)cc1O (racemic) [Compound 4-13]
< 50 | Cc1cc(NC(=O)[C@H](CCN)NC(=O)[C@@H]2Cc3ccccc3CN2C(=O)CCC(=O)c2ccccc2)cc(C)c1Cl [Compound 2-39]
250 to 500 | NCC[C@@H](NC(=O)[C@@H]1Cc2ccccc2CN1C(=O)CCC(=O)c1ccccc1)C(=O)Nc1ccc(Cl)c(Cl)c1F [Compound 14-29]
< 50 | Cc1cc(NC(=O)[C@H](CCCCN)NC(=O)[C@@H]2Cc3ccccc3CN2C(=O)CCC(=O)c2ccccc2)cnc1C [Compound 1-34]
50 to 250 | NCCCC[C@H](NC(=O)[C@@H]1Cc2ccccc2CN1C(=O)CCC(=O)c1ccccc1)C(=O)Nc1ccc(Cl)cc1F [Compound 1-23]
250 to 500 | Cc1ccc(NC(=O)[C@H](CCN)NC(=O)[C@@H]2Cc3ccccc3CN2C(=O)CCC(=O)c2ccccc2)c(Cl)c1 [Compound 2-36]
< 50 | Cc1cc(NC(=O)[C@H](CCN)NC(=O)[C@@H]2Cc3ccccc3CN2C(=O)CCC(=O)c2ccccc2)ncc1Cl [Compound 4-16]
< 50 | NCC[C@H](NC(=O)[C@@H]1Cc2ccccc2CN1C(=O)CCC(=O)c1ccccc1)C(=O)Nc1cccc(Cl)c1F [Compound 2-34]
< 50 | NCC[C@H](NC(=O)[C@@H]1Cc2ccccc2CN1C(=O)CCC(=O)c1ccccc1)C(=O)Nc1cccc(Cl)c1Cl [Compound 14-8]
< 50 | Cc1cccc(NC(=O)[C@H](CCN)NC(=O)[C@@H]2Cc3ccccc3CN2C(=O)CCC(=O)c2ccccc2)c1Cl [Compound 14-6]

Reference: US11040954B1, “CXCR3 receptor agonists” (RECEPTOS LLC, priority 2016, dated 2021)
